What was measured:
human platelets = assay: Platelet activation: GMP140 expression measured with CD62 antibody by flow cytometry; assay type: cell-based; details: for Activation, PMA Activated, Day 3: storage Day 3, PMA 10-^7 M; for Activation, PMA Activated, Day 5: storage Day 5, PMA 10-^7 M
From the text: When platelets become activated, an alpha granule membrane glycoprotein called GMP140 becomes exposed on the platelet surface. Less than (5%) of fresh, normal unstimulated platelets express detectable GMP 140 levels by flow cytometry. See generally M.J. Metzelaar, Studies on the Expression of Activation-Markers on Human Platelets (Thesis 1991).
To measure GMP140, a small aliquot of platelet rich plasma is placed in HEPES buffer containing a GMP140-binding antibody or control mouse IgG. CD62 is a commercially available monoclonal antibody which binds to GMP 140 (available from Sanbio, Uden, the Netherlands; Caltag Labs, So. San Francisco, CA, and Becton Dickinson, Mountain View, CA). After a fifteen minute incubation, Goat Anti-Mouse IgG conjugated to FITC is added to the tube in saturating amounts. Finally, the cells are diluted in isotonic saline, fixed with paraformaldehyde and analyzed on a FACSCAN™ (Becton Dickinson, Mountain View, CA). The positive control is made by adding Phorbol Myristate Acetate (PMA) to the test system at a final concentration of 10-^7 M.
In this example, CD62 was employed to measure the impact, if any, of irradiation alone on platelet activation. The antibody was stored in small aliquots (0.01 mg/ml) at -40°C prior to use. A mouse IgG control (0.05 mg/ml) (Becton Dickinson, Mountain View, CA #9040) 5X concentrated was employed. At time of use, this was diluted 1:5 in HEPES buffer. The secondary antibody was goat Anti-Mouse IgG conjugated to FITC (TAGO, Burlingame, CA #3506). This was stored in small aliquots at -20°C. Phorbol Myristate Acetate (PMA) (Sigma, St. Louis, MO) was stored at -40°C. At time of use, this was dissolved in DMSO (working concentration was 1.62 X 10^-5 M).
16% Paraformaldehyde (PFA) (Sigma, St. Louis, MO) was prepared by adding 16 grams paraformaldehyde to 100 ml de-ionized water. This was heated to 70°C, whereupon 3 M NaOH was added dropwise until the solution was clear. The solution was cooled and the pH was adjusted to 7.4 with 1 N HCl. This was filtered and stored. A commercially available isotonic buffer was used: Hematall Isotonic Diluent (Fisher # CS 606-20).
Following irradiation, the platelets were stored for 5 days. At specific time points, aliquots were taken and processed.
Processing involved adding an aliquot (e.g. 5 microliters) of platelet concentrate to each microcentrifuge tube containing the antibody and appropriate reagents and this was mixed very gently by vortex. The samples were incubated for 15 minutes at room temperature.
The Goat anti-Mouse IgG-FITC (diluted 1:10 in HEPES buffer) was added (5 microliters) to each tube and the solution was mixed by gentle vortex. The samples were incubated for an additional 15 minutes at room temperature.
Isoton II was added (1 ml) to each tube and mixed gently with a polypropylene disposable pipette. 8% PFA in HEPES (150 microliters) was added to each diluted sample to final 1%. The platelets were analyzed on the FACSCAN™.
Shorter Irradiation Times.

viruses = details: 300 ug/ml of 8-MOP, one hour or more of irradiation with ultraviolet light; cited from earlier work
[1] = non activated 8-MOP; cited from earlier work
[2] = Photochemical breakdown measured by reverse phase HPLC; assay type: physicochemical; details: Figure 7
[3] = tested on: single stranded 5S ribosomal RNA; details: irradiation at 4°C compared to 20°C; cited from earlier work

## COc1c2occc2cc2ccc(=O)oc12 [8-MOP, 8-methoxypsoralen]
Human platelets; 10 ug/ml 8-MOP, five minutes UVA, 25°C, stored for 5 days
  damage to platelets after irradiation in the presence of psoralen: without damage to the cells
viruses
  inactivation of viruses: can effectively inactivate viruses
[1]
  mutagenicity: not mutagenic

## Cc1oc2c(C)c3oc(=O)cc(C)c3cc2c1CN [AMT, 4'-aminomethyl-4,5',8-trimethylpsoralen]
[2]
  degradation (photochemical breakdown): degrades more quickly than 8-MOP

## Cc1oc2c(C)c3oc(=O)cc(C)c3cc2c1CO [HMT, 4'-hydroxymethyl-4,5',8-trimethylpsoralen]
[3]
  enhancement of covalent addition of HMT to 5S rRNA: two fold

## CCCCCCCCCCCCCC(=O)O[C@@H]1[C@@H](C)[C@@]2(O)[C@@H](C=C(CO)C[C@]3(O)C(=O)C(C)=C[C@@H]23)[C@@H]2C(C)(C)[C@]12OC(C)=O [PMA, Phorbol Myristate Acetate]
Human platelets; Control (no irradiation)
  Activation, PMA Activated, Day 3: 85%
  Activation, PMA Activated, Day 5: 89%
Human platelets; UV 5'
  Activation, PMA Activated, Day 3: 87%
  Activation, PMA Activated, Day 5: 86%
Human platelets; UV 10'
  Activation, PMA Activated, Day 3: 84%
  Activation, PMA Activated, Day 5: 79%
